The values below come from patent US9586968B2, “Bicycloamine-substituted-N-benzenesulfonamide compounds with selective activity in voltage-gated sodium channels” (Merck Sharp & Dohme Corp., priority 2013, dated 2017).

One assay addresses T1, human Nav1.7 (Homo sapiens, UniProt Q15858).
T1 construct: expressed in transfected cells
Briefly: PatchXpress automated patch-clamp, inactivated state block of Nav1.7. Type of assay: cell-based. The conditions noted are these: channels stably expressed in HEK 293 cells, 22° C., read-out: potency for the Nav 1.7 sodium ion channel (as measured by PatchXpress). In outline:
(§1)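 Inactivated-state protocol: 8000 ms conditioning 7 mV above V0.5 inact from a holding potential 20 mV below it, then 2 ms at −120 mV and a 20 ms test to −20 mV.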
(In general: In patch-clamp work, channel activity is measured electrically.)

The target of another assay is T2, human Nav1.5 (Homo sapiens, UniProt Q14524).
T2 construct: expressed in transfected cells
The assay is described as follows: PatchXpress automated patch-clamp, inactivated state block of Nav1.5 (selectivity). Type of assay: cell-based. The note with it: determined by PatchXpress measurement, HEK 293 cells. In outline:
as §1

The structures appear in SMILES notation.

T2 sequence (Q14524 whole entry): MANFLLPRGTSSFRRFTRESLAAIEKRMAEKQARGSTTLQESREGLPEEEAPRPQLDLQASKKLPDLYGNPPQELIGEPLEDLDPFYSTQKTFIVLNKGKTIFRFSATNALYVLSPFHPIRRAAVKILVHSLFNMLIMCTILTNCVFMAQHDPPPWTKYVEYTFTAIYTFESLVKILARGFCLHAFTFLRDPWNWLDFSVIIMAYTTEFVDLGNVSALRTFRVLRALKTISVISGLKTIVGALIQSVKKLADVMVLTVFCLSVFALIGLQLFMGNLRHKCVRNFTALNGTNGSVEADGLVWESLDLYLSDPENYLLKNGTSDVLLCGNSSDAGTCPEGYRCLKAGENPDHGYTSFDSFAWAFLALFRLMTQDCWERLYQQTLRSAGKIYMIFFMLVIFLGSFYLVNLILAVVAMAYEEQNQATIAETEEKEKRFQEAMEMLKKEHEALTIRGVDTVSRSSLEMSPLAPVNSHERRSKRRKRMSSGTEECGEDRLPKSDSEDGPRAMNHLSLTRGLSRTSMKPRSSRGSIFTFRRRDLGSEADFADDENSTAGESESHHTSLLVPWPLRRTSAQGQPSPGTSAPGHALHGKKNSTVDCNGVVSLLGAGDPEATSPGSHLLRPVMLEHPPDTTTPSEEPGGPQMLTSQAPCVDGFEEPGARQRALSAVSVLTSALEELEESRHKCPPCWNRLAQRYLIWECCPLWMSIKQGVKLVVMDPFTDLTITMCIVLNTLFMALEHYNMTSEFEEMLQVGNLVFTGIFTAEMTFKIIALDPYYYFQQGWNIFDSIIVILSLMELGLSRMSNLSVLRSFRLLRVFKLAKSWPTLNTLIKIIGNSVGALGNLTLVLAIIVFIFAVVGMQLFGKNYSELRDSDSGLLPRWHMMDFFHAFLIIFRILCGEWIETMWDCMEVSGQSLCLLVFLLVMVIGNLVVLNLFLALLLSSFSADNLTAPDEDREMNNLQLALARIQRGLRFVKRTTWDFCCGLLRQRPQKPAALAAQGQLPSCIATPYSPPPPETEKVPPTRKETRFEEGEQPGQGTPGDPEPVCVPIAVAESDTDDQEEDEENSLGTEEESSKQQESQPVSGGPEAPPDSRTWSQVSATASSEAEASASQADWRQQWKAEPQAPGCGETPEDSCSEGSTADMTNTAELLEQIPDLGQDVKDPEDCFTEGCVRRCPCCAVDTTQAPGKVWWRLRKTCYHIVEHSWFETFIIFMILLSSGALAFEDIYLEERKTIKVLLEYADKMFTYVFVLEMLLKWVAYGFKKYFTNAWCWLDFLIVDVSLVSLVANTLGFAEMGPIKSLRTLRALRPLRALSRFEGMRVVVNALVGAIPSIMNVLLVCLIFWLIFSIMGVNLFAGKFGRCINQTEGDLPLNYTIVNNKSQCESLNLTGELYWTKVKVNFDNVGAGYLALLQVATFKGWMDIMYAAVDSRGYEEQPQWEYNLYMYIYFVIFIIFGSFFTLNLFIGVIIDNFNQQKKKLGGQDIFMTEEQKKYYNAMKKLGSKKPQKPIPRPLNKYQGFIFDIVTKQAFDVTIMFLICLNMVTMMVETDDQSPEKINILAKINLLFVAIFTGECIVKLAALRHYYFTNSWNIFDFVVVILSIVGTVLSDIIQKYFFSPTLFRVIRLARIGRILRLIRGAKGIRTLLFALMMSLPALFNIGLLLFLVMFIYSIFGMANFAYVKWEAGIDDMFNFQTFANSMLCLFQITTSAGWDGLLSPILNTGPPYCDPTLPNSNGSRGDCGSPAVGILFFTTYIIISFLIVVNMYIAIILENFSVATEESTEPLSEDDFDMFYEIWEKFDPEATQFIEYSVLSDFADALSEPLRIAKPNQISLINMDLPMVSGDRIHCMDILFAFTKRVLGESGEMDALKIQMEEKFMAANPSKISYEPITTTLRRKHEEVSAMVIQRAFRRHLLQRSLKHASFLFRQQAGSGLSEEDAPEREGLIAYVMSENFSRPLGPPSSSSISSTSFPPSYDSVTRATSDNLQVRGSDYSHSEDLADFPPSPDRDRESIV
T1 sequence (Q15858 whole entry): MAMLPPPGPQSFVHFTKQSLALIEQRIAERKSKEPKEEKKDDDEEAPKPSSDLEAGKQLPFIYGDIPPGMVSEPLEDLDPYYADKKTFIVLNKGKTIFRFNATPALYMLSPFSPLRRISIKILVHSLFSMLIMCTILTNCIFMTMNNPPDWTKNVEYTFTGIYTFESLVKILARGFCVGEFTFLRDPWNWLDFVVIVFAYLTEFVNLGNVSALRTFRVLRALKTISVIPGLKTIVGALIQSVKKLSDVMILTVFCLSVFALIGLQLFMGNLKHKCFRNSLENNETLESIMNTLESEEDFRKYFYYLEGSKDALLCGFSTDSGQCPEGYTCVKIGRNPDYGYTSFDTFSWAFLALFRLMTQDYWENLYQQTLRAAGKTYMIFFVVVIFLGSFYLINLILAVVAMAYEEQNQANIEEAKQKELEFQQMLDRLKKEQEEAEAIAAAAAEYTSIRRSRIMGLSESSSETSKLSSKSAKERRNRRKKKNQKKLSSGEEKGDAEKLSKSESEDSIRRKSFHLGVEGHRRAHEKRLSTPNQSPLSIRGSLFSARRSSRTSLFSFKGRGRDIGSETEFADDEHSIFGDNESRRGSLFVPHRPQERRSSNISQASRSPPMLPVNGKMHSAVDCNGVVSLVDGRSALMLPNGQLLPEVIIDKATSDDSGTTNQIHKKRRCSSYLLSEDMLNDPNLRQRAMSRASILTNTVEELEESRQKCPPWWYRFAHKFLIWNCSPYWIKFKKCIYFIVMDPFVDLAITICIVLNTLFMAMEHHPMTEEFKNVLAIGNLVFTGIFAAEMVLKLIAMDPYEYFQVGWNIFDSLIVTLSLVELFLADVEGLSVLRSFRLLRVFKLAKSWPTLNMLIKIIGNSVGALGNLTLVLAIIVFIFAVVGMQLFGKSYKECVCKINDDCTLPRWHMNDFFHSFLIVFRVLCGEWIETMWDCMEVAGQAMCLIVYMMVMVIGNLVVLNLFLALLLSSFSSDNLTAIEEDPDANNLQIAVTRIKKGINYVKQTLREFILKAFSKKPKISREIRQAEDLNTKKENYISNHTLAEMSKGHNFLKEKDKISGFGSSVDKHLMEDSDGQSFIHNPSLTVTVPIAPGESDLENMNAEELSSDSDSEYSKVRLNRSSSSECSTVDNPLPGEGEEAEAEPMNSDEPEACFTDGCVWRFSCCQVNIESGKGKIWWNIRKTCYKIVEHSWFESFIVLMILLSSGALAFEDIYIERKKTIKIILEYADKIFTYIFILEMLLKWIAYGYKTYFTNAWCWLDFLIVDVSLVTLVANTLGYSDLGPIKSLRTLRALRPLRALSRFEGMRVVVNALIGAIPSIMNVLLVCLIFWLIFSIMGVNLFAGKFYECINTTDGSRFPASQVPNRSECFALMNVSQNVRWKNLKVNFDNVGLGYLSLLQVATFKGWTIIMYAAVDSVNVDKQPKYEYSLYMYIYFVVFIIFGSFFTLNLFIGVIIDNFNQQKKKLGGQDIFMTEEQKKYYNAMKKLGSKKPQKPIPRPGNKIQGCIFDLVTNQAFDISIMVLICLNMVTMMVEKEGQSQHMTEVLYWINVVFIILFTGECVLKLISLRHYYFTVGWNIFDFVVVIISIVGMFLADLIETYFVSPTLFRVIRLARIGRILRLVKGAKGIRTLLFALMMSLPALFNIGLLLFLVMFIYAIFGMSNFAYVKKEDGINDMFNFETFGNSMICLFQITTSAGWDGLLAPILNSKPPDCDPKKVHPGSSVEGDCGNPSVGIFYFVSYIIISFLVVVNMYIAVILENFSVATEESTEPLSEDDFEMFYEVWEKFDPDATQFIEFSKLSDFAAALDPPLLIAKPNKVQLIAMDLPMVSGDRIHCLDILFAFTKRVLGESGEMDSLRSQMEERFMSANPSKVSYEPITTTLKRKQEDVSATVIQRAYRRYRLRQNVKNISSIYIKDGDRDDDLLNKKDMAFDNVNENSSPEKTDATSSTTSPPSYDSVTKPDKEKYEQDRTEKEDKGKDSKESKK

With `CC1CCC2(CNc3ccc(S(=O)(=O)Nc4nccs4)cc3C(F)(F)F)CCCN12` (single isomer, unassigned) [Ex11-10-B, 4-((((3R,7aR or 3S,7aS)-3-methylhexahydro-1H-pyrrolizin-7a-yl)methyl)-amino)-N-(thiazol-2-yl)-3-(trifluoromethyl)-benzenesulfonamide], the IC50 on human Nav1.7 stood at 40 nM. For the same compound, the “ratio of Nav1.7 potency:Nav 1.5 potency” value on human Nav1.5 is on record as 755.

Regarding `CC1CN2CCCC2(CNc2ccc(S(=O)(=O)Nc3nccs3)cc2Cl)C1` [Ex4-11, 3-chloro-4-((((2S/7aR and 2R,7aS)-2-methylhexahydro-1H-pyrrolizin-7a-yl)methyl)amino)-N-(thiazol-2-yl)benzenesulfonamide], the IC50 on human Nav1.7 is 5 nM. Also, the “ratio of Nav1.7 potency:Nav 1.5 potency” value at human Nav1.5 was 7180.

`O=S(=O)(Nc1nncs1)c1cc(Cl)c(NCC23CCCN2CCC3)cc1F` [Ex1-5, 5-chloro-2-fluoro-4-[(tetrahydro-1H-pyrrolizin-7a(5H)-ylmethyl)amino]-N-(1,3,4-thiadiazol-2-yl)benzenesulfonamide]: the IC50 at human Nav1.7 was found to be 370 nM. Further, the “ratio of Nav1.7 potency:Nav 1.5 potency” value at human Nav1.5 was found to be 81.

Turning to `O=S(=O)(Nc1ncc(F)s1)c1ccc(NCC23CCCN2CC(F)C3)c(Cl)c1` (single isomer, unassigned) [Ex9-14-A, 3-chloro-4-((((2R,7aS or 2S,7aR)-2-fluoro-hexahydro-1H-pyrrolizin-7a-yl)-methyl)amino)-N-(5-fluorothiazol-2-yl)-benzenesulfonamide], the IC50 on human Nav1.7 stood at 144 nM. In addition, the “ratio of Nav1.7 potency:Nav 1.5 potency” value on human Nav1.5 was 208.

On to `CC(Nc1cc(F)c(S(=O)(=O)Nc2nccs2)cc1Cl)C12CCCN1CCC2` (single isomer, unassigned) [Ex5-9, 5-chloro-2-fluoro-4-{[(1S or R)-1-(tetrahydro-1H-pyrrolizin-7a(5H)-yl)ethyl]amino}-N-(1,3-thiazol-2-yl)benzenesulfonamide], for which, on human Nav1.7, the IC50 was 1090 nM. Moreover, the “ratio of Nav1.7 potency:Nav 1.5 potency” value at human Nav1.5 turned out to be 26.

`O=S(=O)(Nc1nccs1)c1cc(F)c(NCC23CCCN2CCC3)cc1Cl` [Ex1-18, 2-chloro-5-fluoro-4-(((hexahydro-1H-pyrrolizin-7a-yl)methyl)amino)-N-(thiazol-2-yl)benzenesulfonamide]: the IC50 at human Nav1.7 turned out to be 129 nM. Also, the “ratio of Nav1.7 potency:Nav 1.5 potency” value at human Nav1.5 is given as 462.

`CC1CN2CCCC2(CNc2ccc(S(=O)(=O)Nc3nccs3)cc2C#N)C1` (racemic) [Ex4-8, 3-cyano-4-{[((2S,7aR and 2R,7aS)-2-methyltetrahydro-1H-pyrrolizin-7a(5H)-yl)methyl]amino}-N-(1,3-thiazol-2-yl)benzenesulfonamide]: the IC50 on human Nav1.7 stood at 27 nM. For the same compound, at human Nav1.5, the “ratio of Nav1.7 potency:Nav 1.5 potency” value came to 1109.

Consider `O=S(=O)(Nc1nccs1)c1cc(Cl)c(NC[C@@]23CCCN2[C@H](CO)CC3)cc1F` (single isomer, unassigned) [Ex14-11-A], for which the IC50 on human Nav1.7 is 28 nM. Moreover, at human Nav1.5, the “ratio of Nav1.7 potency:Nav 1.5 potency” value was determined as 1062.

Consider `C[C@@H]1CC[C@@]2(CNc3cc(F)c(S(=O)(=O)Nc4nccs4)cc3Cl)CCCN12` (single isomer, unassigned) [Ex11-8-B], for which, on human Nav1.7, the IC50 stood at 6 nM. For the same compound, the “ratio of Nav1.7 potency:Nav 1.5 potency” value on human Nav1.5 came to 2533.

As for `CCc1cc(S(=O)(=O)Nc2nccs2)c(F)cc1NCC12CCCN1CCC2` [Ex18-7, 5-ethyl-2-fluoro-4-(((hexahydro-1H-pyrrolizin-7a-yl)-methyl)amino)-N-(thiazol-2-yl)-benzenesulfonamide], the IC50 on human Nav1.7 was determined as 19 nM. In addition, the “ratio of Nav1.7 potency:Nav 1.5 potency” value on human Nav1.5 was 672.

On to `O=S(=O)(Nc1ncc(F)s1)c1ccc(NCC23CCCN2CC2(CC2)C3)c(C(F)(F)F)c1` (single isomer, unassigned) [Ex13-12-A, (S or R)-N-(5-fluorothiazol-2-yl)-4-(((hexahydrospiro-[cyclopropane-1,2′-pyrrolizin]-7a′-yl)methyl)-amino)-3-(trifluoromethyl)-benzenesulfonamide], for which the IC50 at human Nav1.7 came to 22 nM. The “ratio of Nav1.7 potency:Nav 1.5 potency” value at human Nav1.5 was 756.

As for `CC1CCC2(CNc3ccc(S(=O)(=O)Nc4ncc(F)s4)cc3Cl)CCCN12` (single isomer, unassigned) [Ex11-12-B, 3-chloro-N-(5-fluorothiazol-2-yl)-4-((((3R,7aR or 3S,7aS)-3-methylhexahydro-1H-pyrrolizin-7a-yl)methyl)-amino)benzene-sulfonamide], the IC50 on human Nav1.7 came out at 30 nM. At human Nav1.5, the “ratio of Nav1.7 potency:Nav 1.5 potency” value came out at 1017.
